Earlier results, collected in US20220054538A1, “ANTI-HELICOBACTER AGENT AND METHOD FOR THE USE THEREOF” (priority 2018, published 2022).

Test system: Helicobacter pylori culture
Details: in vitro

## calcium pectate
  effect on Helicobacter pylori culture: significant effect
